Measured values as given in EP0414894A1 (priority 1989, dated 1990).
“And” between values parts separate entries of the source, which are not always exact repeats. Equal values may be shown once. Read-outs that look alike come from different tables or passages of the source.

How the values were obtained:
Candida Tropi-calis [1] = test: fungicidal activity, large-scale test on surfaces of articles; assay type: cell-based, Candida tropicalis; conditions: 0.01% solution in water
Method: (§1) The large-scale tests were carried out by using Candida albicans and Candida tropicalis strains, with their 2-day agar culture being diluted with an isotonic sodium chloride solution up to the concentration of 5x10⁷ cells in 1 ml. The culture suspension was laid on the surface (7 mm in diameter) of articles made of ceramics, metal, wood and rubber as well as a cotton, flannel and woollen cloth which were presterilized.
(§2) In a day after incubation from the treated areas washings were taken with a cotton-gauze tampon which was moistened with Sabouraud's liquid medium, then they were immersed into the tubes containing a similar medium, and placed into thermostat at 37°C for 2 days. Thereafter, the inoculum was transfered onto a solified Sabouraud agar, and the values of growth were recorded according to a conventional procedure. The test data of the composition according to the invention over a known composition (zineb) and the control are given in Table 3.

Candida Tropi-calis [2] = test: fungicidal activity, laboratory test on Sabouraud medium; assay type: cell-based, Candida tropicalis; conditions: 0.01% solution in water
Method: (§3) A fungicidal composition based on this compound was prepared, which was a 0.01% solution of the compound in water. […] For testing it the Petri dishes containing Sabourand growth medium were inoculated by using suspension of microorganisms containing 5x10⁷ cells of fungi in 1 ml.
(§4) The restricted surface areas (7 mm in diameter) were coated with the composition by means of a small metal spatula 4x4 mm in size. In a day of incubating it at 37°C in the thermostat the composition inhibited the growth of yeast-like fungi. An antifungal activity of the composition was specified according to the method of 10-fold serial dilution using Sabourand's liquid medium in 2 ml of which 2x10⁵ cells were introduced.

domestic flies [3] = test: insecticidal activity, full-scale (large-scale) test in premises; assay type: in vivo; conditions: 2% solution, 2-3 dishes per 20 m²; 72 hours
Method: The full-scale tests for activity of the insecticidal composition of the invention to domestic flies in habitable and industrial premises were carried out as follows. The Petri dishes containing a 2% solution of the insecticidal composition of the invention were located according 2-3-dishes per 20 m². The composition activity was evaluated by a direct estimation of killed insects in 72 hours or by using an adhesive tape to count the number of flies on its surface prior to and after conducting the test.

Candida albicans [4] = test: fungicidal activity, large-scale test on surfaces of articles; assay type: cell-based; conditions: 0.01% solution in water
Method: as §1, §2

Candida albicans [5] = test: fungicidal activity, laboratory test on Sabouraud medium; assay type: cell-based; conditions: 0.01% solution in water
Method: as §3, §4

domestic flies [6] = test: insecticidal activity, laboratory test in gauze boxes; assay type: in vivo; conditions: for Death of flies, % Tests in laboratory: 2% solution in 5% aqueous glucose, observed in 48-72 hours
Method: The compound obtained was used for preparing an insecticidal composition which was a 2% solution of the compound in a 5% aqueous solution of glucose. The test for activity of the insecticidal composition of the invention was conducted on domestic flies. Into gause 10x10 cm boxes /6 boxes/ 6-7-day flies were placed in the number of 50 individuals per box, which were of both sexes. The Petri dishes containing the insecticidal composition of the invention were put into 5 boxes. The observations for fly death were carried out in 48-72 hours. The Petri dish containing a 5% aqueous glucose solution were placed into a control box.

Meningopneumonia virus = system: Meningopneumonia virus; set-up: species or system meningopneumonia pathogene/MP strain/
pig ascarid eggs = test: microbe, parasite or virus in culture
Hepatitis B virus = test: virulicidal activity, HBsAg titer in blood serum
Text: table ratio instead of the test composition.

Influenza A viruses = test: virulicidal activity, virus titer in allantoic fluid by hemagglutination-inhibition
Staphylococcus aureus = test: microbe, parasite or virus in culture; assay type: cell-based; conditions: Staphylococcus aureus; for killing at 0.5 %: read-out: Death of micro-organisms, % Staphylo-cocus aureus
Escherichia coli = test: microbe, parasite or virus in culture; assay type: cell-based; conditions: Escherichia coli; for killing at 0.5 %: read-out: Death of micro-organisms, % Escherichia coli
[7] = 24 h, read-out: Death of ascaridal eggs, % after 24 hours
[8] = 48 h, read-out: Death of ascaridal eggs, % after 48 hours

Compound | Growth inhibition of fungal colonies, % Candida Tropi-calis Large-scale tests (Candida Tropi-calis [1]) | Growth inhibition of fungal colonies, % Candida Tropi-calis Laboratory tests (Candida Tropi-calis [2]) | Death of flies, % Tests in large-scale (domestic flies [3]) | Growth inhibition of fungal colonies, % Candida albicans Large-scale tests (Candida albicans [4]) | Growth inhibition of fungal colonies, % Candida albicans Laboratory tests (Candida albicans [5]) | Death of flies, % Tests in laboratory (domestic flies [6]) | killing at 2 % (pig ascarid eggs; [7]) | killing at 2 % (pig ascarid eggs; [8]) | Virulicidal activity (%) under exposure 30 min (Influenza A viruses; concentration 1.0 % by mass) | Virulicidal activity (%) under exposure 30 min (Influenza A viruses; concentration 2.0 % by mass) | further results
COP(=NC(CO)C(O)c1ccc([N+](=O)[O-])cc1)(OC)OC (centres unmarked) [Example 1, trimethoxyphosphazo-1-para-nitrophenyl-1,3-propandiol] | 100.0% | 100.0% | 87.0% | 100.0% | 100.0% | 89.1% |  |  |  |  | 
CCOP(=NC(CO)C(O)c1ccc([N+](=O)[O-])cc1)(OCC)OCC (centres unmarked) [Example 2, triethoxyphosphazo-1-para-nitrophenyl-1,3-propandiol] | 100.0% | 100.0% | 83.0% | 100.0% | 100.0% | 84.7% |  |  |  |  | 
CCCOP(=NC(CCl)C(O)c1ccc([N+](=O)[O-])cc1)(OCCC)OCCC (centres unmarked) [Example 5, tri-n-propoxyphosphazo-1-para-nitrophenyl-1-chloro-3-propanol] |  |  | 93.0% |  |  | 94.5% | 100% | 100% | 12.5% | 50.0% | Virulicidal activity (%) under exposure 60 min (Meningopneumonia virus): 50.0% and 75.0%; Virulicidal activity (%) under exposure 30 min (Hepatitis B virus; concentration 1.0 % by mass): 12.5%; Virulicidal activity (%) under exposure 60 min (Hepatitis B virus; concentration 1.0 % by mass): 50.0%; Virulicidal activity (%) under exposure 30 min (Hepatitis B virus; concentration 2.0 % by mass): 25,0%; Virulicidal activity (%) under exposure 60 min (Hepatitis B virus; concentration 2.0 % by mass): 75,0%; Virulicidal activity (%) under exposure 60 min (Influenza A viruses; concentration 1.0 % by mass): 50.0%; Virulicidal activity (%) under exposure 60 min (Influenza A viruses; concentration 2.0 % by mass): 75.0%
COP(=NC(CCl)C(Cl)c1ccc([N+](=O)[O-])cc1)(OC)OC (centres unmarked) [Example 9, trimethoxyphosphazo-1-para-nitrophenyl-1,3-dichloropropane] | 100.0% | 100.0% | 83.0% | 100.0% | 100.0% | 85.2% |  |  |  |  | killing at 0.5 % (Staphylococcus aureus): 100%; killing at 0.5 % (Escherichia coli): 100%
CCOP(=NC(CCl)C(Cl)c1ccc([N+](=O)[O-])cc1)(OCC)OCC (centres unmarked) [Example 10, triethoxyphosphazo-1-para-nitrophenyl-1,3-dichloropropane] | 100.0% | 100.0% | 88.0% | 100.0% | 100.0% | 89.9% |  |  |  |  | killing at 0.5 % (Staphylococcus aureus): 99.8%; killing at 0.5 % (Escherichia coli): 100%
COP(=NC(CCl)C(O)c1ccc([N+](=O)[O-])cc1)(OC)OC (centres unmarked) [Example 15] | 100.0% | 100.0% |  | 100.0% | 100.0% |  |  |  |  |  | 
CCOP(=NC(CCl)C(O)c1ccc([N+](=O)[O-])cc1)(OCC)OCC (centres unmarked) [Example 16, triethoxy-phosphazo-1-para-nitrophenyl-1-chloro-3-propanol] | 100.0% | 100.0% |  | 100.0% | 100.0% |  |  |  | 50.0% | 98.4% | Virulicidal activity (%) under exposure 30 min (Meningopneumonia virus): 25.0% and 50.0%; Virulicidal activity (%) under exposure 60 min (Meningopneumonia virus): 50.0% and 99.0%; Virulicidal activity (%) under exposure 30 min (Hepatitis B virus; concentration 1.0 % by mass): 50.0%; Virulicidal activity (%) under exposure 60 min (Hepatitis B virus; concentration 1.0 % by mass): 75.0%; Virulicidal activity (%) under exposure 30 min (Hepatitis B virus; concentration 2.0 % by mass): 100,0%; Virulicidal activity (%) under exposure 60 min (Hepatitis B virus; concentration 2.0 % by mass): 100,0%; Virulicidal activity (%) under exposure 60 min (Influenza A viruses; concentration 1.0 % by mass): 75.0%; Virulicidal activity (%) under exposure 60 min (Influenza A viruses; concentration 2.0 % by mass): 100.0%
O=C(N[C@H](COP(=N[C@@H](CO)[C@@H](O)c1ccc([N+](=O)[O-])cc1)(OC[C@@H](NC(=O)C(Cl)Cl)[C@H](O)c1ccc([N+](=O)[O-])cc1)OC[C@@H](NC(=O)C(Cl)Cl)[C@H](O)c1ccc([N+](=O)[O-])cc1)[C@H](O)c1ccc([N+](=O)[O-])cc1)C(Cl)Cl [Example 27] |  |  |  |  |  |  | 100% | 100% | 100.0% | 100.0% | Death of flies, % after 48 hours (domestic flies [6]; concentration 2.0 % by mass, after 48 hours): 34.0%; Death of flies, % after 72 hours (domestic flies [6]; concentration 2.0 % by mass, after 72 hours): 62.0%
O=[N+]([O-])c1ccc(C(O)C(CO)N=P(Nc2ccccc2)(Nc2ccccc2)Nc2ccccc2)cc1 (centres unmarked) [Example 29, trianilidophosphazo-1-para-nitrophenyl-1,3-propanediol] |  |  |  |  |  |  | 97.6% | 100% |  |  | 
CNC(=S)S [carbathione, dihydrate, reference compound] |  |  |  |  |  |  | 60% | 80% |  |  | 
O=S(=O)(NCl)c1ccccc1 [sodium N-chlorobenzenesulfamide, reference compound] |  |  |  |  |  |  |  |  | 12.5% and 22.0% | 25.0% and 25.1% | killing at 0.2 % (Staphylococcus aureus; read-out: Death of micro-organisms, % S.aureus): 90%; killing at 0.5 % (Staphylococcus aureus): 100%; Virulicidal activity (%) under exposure 60 min (Meningopneumonia virus): 25.0% and 50.0%; Virulicidal activity (%) to poliomyelitis virus under exposure of 30 min (poliomyelitis virus; concentration 1.0 % by mass): 9.0%; Virulicidal activity (%) to poliomyelitis virus under exposure of 60 min (poliomyelitis virus; concentration 1.0 % by mass): 25.0%; Virulicidal activity (%) to poliomyelitis virus under exposure of 30 min (poliomyelitis virus; concentration 2.0 % by mass): 12.5%; Virulicidal activity (%) to poliomyelitis virus under exposure of 60 min (poliomyelitis virus; concentration 2.0 % by mass): 50.0%; Virulicidal activity (%) under exposure 30 min (Hepatitis B virus; concentration 1.0 % by mass): 9.0%; Virulicidal activity (%) under exposure 60 min (Hepatitis B virus; concentration 1.0 % by mass): 25.0%; Virulicidal activity (%) under exposure 30 min (Hepatitis B virus; concentration 2.0 % by mass): 12.5%; Virulicidal activity (%) under exposure 60 min (Hepatitis B virus; concentration 2.0 % by mass): 50.0%; killing at 0.2 % (Escherichia coli; read-out: Death of micro-organisms, % E.coli): 100%; killing at 0.5 % (Escherichia coli): 100%; Virulicidal activity (%) under exposure 60 min (Influenza A viruses; concentration 1.0 % by mass): 25.0%; Virulicidal activity (%) under exposure 60 min (Influenza A viruses; concentration 2.0 % by mass): 50.0%
